From patent publication US7473783B2, “Bicyclic pyrazolo protein kinase modulators” (SGX Pharmaceuticals, Inc., priority 2003, dated 2009)

Columns and labels:
[1] = biological target: T1, wild type MET kinase (Homo sapiens, UniProt P08581); experiment: MET Kinase-Glo assay; assay type: biochemical; settings: Table 9, 60 minutes at RT
T1 construct: made in house
From the text: (§1) Although this example presents the use of wild type MET and RON […], the kinase assays may use various forms of mutant and wild type RON or MET, including, for example, the entire intracellular domain, the kinase domain, or a portion thereof. The kinases used in the assays may also be of varying phophorylation states. In the case of RON, a mutant kinase at a zero phosphorylation state was used.
(§2) For the MET and RON assays, the Kinase-Glo® assay system (Promega) was used, which employs firefly luciferase to detect the amount of ATP following a kinase reaction. This assay system has two steps. First, the kinase reaction is run for a designated period of time. Next, an equivalent volume of Kinase-Glo reagent is added to quench the kinase reaction and detect the ATP remaining in the sample. The total light output is read by a plate-reading luminometer and the resulting signal is stable for 4 hours. Inhibition of kinase activity translates into lower ATP consumption and thus higher light output during the detection step.
(§3) Materials: Poly EY 4:1 (Sigma); MgCl2 (2M stock available from Lab Support); HEPES buffer, pH 7.5; Bovine serum albumin (Roche 92423420); ATP (Sigma CAT#A-3377, FW=551); White Costar 384-well flat-bottom plate (VWR 29444-088); and SGX RON kinase clone (M1254T activation loop mutant) or SGX MET kinase clone.
MET enzyme mix: 100 mM HEPES pH 7.5, 10 mM MgCl2, 0.3 mg/mL poly EY, 0.1% BSA, and 0.4 μg/mL MET kinase.
(§4) To each well of a multiwell plate was added 15 μL of the enzyme mix, 1 μL of compound at 20-times the desired final assay concentration (or DMSO for positive controls or 200 μM staurosporine for negative controls), and 4 μL of 50 μM ATP to start the reaction. The kinase was reaction to allowed to proceed for 60 minutes at RT for the MET assay. For the RON assay, the reaction proceeded at RT for 60 minutes to 120 minutes (depending on enzyme prep). 20 μL Kinase-Glo reagent was then added to each well. The reagent was incubated for at least 10 minutes before plate reading.
(§5) Data anlaysis was performed using methods similar to those described above in the Abl assay (Firepower®, Exegetix).

[2] = biological target: T2, RON kinase (M1254T activation loop mutant) (Homo sapiens, UniProt Q04912, M1254T); experiment: RON Kinase-Glo assay; assay type: biochemical; settings: Table 9, 60 minutes to 120 minutes at RT
T2 construct: made in house
T2 sequence (Q04912 25-1400 M1254T): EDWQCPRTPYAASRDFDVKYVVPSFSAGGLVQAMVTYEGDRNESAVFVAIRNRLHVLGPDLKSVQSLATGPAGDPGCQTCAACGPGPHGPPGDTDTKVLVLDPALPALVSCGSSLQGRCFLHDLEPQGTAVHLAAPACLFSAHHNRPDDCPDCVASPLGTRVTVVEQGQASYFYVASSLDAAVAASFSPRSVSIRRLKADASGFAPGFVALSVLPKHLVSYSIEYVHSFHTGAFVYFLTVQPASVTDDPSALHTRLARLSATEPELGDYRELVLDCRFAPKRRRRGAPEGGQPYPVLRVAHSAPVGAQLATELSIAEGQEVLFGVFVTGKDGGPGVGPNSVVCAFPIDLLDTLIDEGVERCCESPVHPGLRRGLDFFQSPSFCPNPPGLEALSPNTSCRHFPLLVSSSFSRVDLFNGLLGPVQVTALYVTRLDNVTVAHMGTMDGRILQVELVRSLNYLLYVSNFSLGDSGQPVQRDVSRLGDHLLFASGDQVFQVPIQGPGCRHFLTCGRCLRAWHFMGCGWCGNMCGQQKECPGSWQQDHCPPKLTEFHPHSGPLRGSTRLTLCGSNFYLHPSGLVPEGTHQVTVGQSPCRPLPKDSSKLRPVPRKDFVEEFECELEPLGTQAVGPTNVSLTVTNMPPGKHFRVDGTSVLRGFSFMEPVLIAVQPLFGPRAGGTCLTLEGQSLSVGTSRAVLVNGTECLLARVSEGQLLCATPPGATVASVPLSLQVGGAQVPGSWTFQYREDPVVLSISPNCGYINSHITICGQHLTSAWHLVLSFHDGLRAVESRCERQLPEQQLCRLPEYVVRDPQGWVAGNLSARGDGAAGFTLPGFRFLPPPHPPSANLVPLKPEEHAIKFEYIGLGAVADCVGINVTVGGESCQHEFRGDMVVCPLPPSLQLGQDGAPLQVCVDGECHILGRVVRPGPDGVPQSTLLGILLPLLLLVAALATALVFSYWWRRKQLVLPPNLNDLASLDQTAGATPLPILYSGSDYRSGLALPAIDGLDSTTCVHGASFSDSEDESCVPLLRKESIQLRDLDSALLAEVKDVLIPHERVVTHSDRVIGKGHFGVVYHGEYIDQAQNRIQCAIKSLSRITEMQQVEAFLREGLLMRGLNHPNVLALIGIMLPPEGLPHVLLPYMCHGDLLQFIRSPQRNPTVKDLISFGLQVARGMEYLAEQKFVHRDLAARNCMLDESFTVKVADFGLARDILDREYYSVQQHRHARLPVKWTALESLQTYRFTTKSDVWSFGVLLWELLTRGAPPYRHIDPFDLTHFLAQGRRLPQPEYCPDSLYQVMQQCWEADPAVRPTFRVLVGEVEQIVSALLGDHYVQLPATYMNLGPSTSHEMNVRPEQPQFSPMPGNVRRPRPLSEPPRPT
From the text: as §1, §2, §3
RON enzyme mix: 100 mM HEPES pH 7.5, 10 mM MgCl2, 1 mg/mL poly EY, 0.1% BSA, and 3-5 μg/mL RON kinase (depending on enzyme prep).
as §4, §5

T1 sequence (P08581 25-1390): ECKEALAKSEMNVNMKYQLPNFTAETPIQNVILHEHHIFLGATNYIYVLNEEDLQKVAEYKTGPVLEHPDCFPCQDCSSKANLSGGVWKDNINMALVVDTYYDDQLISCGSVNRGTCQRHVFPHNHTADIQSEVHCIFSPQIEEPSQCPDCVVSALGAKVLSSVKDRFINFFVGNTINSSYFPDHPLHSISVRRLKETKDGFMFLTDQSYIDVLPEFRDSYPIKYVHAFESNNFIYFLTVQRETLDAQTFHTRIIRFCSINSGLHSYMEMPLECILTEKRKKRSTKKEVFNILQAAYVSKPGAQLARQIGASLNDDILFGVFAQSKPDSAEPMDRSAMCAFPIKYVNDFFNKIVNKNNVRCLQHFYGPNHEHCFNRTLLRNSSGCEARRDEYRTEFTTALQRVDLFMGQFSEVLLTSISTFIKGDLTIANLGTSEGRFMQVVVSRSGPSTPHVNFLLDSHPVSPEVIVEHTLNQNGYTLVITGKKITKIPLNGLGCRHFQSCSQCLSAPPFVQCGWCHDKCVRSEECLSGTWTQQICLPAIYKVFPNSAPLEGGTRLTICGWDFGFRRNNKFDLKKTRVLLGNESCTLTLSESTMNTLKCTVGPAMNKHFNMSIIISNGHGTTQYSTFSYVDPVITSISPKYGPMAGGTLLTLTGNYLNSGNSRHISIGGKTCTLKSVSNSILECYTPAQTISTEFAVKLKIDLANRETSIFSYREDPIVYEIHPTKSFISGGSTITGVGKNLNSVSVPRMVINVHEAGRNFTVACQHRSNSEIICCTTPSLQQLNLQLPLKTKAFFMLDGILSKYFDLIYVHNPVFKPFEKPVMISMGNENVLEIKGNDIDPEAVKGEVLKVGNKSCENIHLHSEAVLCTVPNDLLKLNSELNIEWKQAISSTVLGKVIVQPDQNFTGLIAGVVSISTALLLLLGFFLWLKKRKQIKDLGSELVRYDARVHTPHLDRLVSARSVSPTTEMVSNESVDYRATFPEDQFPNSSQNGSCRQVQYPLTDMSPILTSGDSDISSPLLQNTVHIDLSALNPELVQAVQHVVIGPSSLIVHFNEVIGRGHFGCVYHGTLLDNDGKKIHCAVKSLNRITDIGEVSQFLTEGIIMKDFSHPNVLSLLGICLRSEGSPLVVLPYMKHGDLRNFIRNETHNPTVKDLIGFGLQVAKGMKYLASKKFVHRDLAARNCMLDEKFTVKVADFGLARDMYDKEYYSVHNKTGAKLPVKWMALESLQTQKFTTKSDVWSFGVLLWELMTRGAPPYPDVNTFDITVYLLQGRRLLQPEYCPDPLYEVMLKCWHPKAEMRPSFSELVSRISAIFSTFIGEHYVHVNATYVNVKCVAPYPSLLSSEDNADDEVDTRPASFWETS

Row | Compound | IC50 [1] | IC50 [2]
1 | CC(C)C(=O)Nc1nc2[nH]nc(-c3ccccc3Cl)c2s1 | < 5 µM | 5 to 20 µM
2 | COc1cccc(OC)c1C(=O)Nc1nc2[nH]nc(-c3ccccc3Cl)c2s1 | 5 to 20 µM | 5 to 20 µM
3 | CC(=O)O[C@@H](C)C(=O)Nc1nc2[nH]nc(-c3ccccc3Cl)c2s1 | > 20 µM | > 20 µM
4 | O=C(Nc1nc2[nH]nc(-c3ccc(O)cc3)c2s1)C1CC1 [drawing 274] | < 5 µM | 5 to 20 µM
5 | O=C(Nc1nc2[nH]nc(-c3ccccc3Cl)c2s1)C1CC1 [drawing 276] | < 5 µM | 5 to 20 µM
6 | O=C(Nc1nc2[nH]nc(-c3ccccc3Br)c2s1)C1CC1 [drawing 278] | 5 to 20 µM | > 20 µM
7 | COc1ccc(-c2n[nH]c3nc(NC(=O)C4CC4)sc23)cc1 [drawing 280] | > 20 µM | > 20 µM
